Test results: ChEMBL document CHEMBL6153137, “Design, Synthesis, and Biological Evaluation of Novel Orally Available Covalent CDK12/13 Dual Inhibitors for the Treatment of Tumors” (J Med Chem, 2025)
Values after ≈ are worked out from the molar mass of the structure shown. Active and inactive are the calls of the source. No cut-off for these calls is given here.

Columns and labels:
[1] = biological target: Cyclin-Y/Cyclin-dependent kinase 16 (Homo sapiens) (UniProt Q00536+Q8ND76); test: Inhibition of human recombinant N-terminal GST-tagged CDK16/N-terminal GST-tagged Cyclin Y expressed in HEP Sf9 cells using ATP as substrate at 2 uM measured after 60 mins by ADP-Glo reagent based luminescence analysis
MV4-11 = test: Antitumor activity against human MV4-11 cells xenografted in Balb/c nude mouse assessed as inhibition of tumor growth at 30 mg/kg, po administered once daily via gavage and measured on day 21; assay type: functional; conditions: MV4-11, 504 h, time 21 day, read-out: TGI
[2] = biological target: CDK3/Cyclin E (Homo sapiens) (UniProt P24864+Q00526); test: Inhibition of human recombinant N-terminal GST-tagged CDK3/N-terminal 6X His-tagged Cyclin E1 expressed in HEP Sf9 cells using ATP as substrate at 2 uM measured after 60 mins by ADP-Glo reagent based luminescence analysis
[3] = biological target: CDK1/Cyclin E (Homo sapiens) (UniProt P06493+P24864); test: Inhibition of human recombinant N-terminal GST-tagged CDK1/Cyclin E1 expressed in HEP Sf9 cells using ATP as substrate at 2 uM measured after 60 mins by ADP-Glo reagent based luminescence analysis
Chain of CDK1/Cyclin E (Homo sapiens) (P06493 whole entry, looked up): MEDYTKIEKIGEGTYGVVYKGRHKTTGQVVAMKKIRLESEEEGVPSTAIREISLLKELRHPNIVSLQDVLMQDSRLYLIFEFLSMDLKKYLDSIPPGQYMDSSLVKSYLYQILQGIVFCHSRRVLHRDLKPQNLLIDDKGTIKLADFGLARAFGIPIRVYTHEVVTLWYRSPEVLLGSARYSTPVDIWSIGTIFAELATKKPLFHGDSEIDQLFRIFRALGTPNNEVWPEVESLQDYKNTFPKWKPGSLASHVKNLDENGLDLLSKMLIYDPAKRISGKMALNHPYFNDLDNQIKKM
Chain of CDK1/Cyclin E (Homo sapiens) (P24864 whole entry, looked up): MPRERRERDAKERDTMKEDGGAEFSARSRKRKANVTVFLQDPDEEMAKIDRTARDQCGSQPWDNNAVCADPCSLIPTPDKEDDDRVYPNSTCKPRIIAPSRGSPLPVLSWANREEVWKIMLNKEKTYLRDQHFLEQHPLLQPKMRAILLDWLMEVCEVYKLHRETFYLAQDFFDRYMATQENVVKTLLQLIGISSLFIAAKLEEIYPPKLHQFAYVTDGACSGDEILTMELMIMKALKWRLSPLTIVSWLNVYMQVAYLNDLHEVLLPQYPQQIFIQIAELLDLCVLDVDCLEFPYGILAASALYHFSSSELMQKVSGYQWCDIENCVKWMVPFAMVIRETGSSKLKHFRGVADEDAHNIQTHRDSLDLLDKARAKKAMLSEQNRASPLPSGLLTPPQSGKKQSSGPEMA

[4] = Toxicity against male Sprague-Dawley rat assessed as effect on glucose level in blood at 10 to 40 mg/kg, po administered once daily via gavage for 28 days and measured on day 29; assay type: organism-based; conditions: in vivo, 696 h, dose 10-40 mg/kg, time 29 day
[5] = biological target: Cyclin-dependent kinase 12/13 (Homo sapiens) (UniProt Q14004+Q9NYV4); test: Inhibition of CDK12/13 in human SUM149PT cells assessed as reduction in level of phosphorylation of Ser2 on RNA Pol II CTD incubated for 24 hrs by western blot analysis; assay type: cell-based; conditions: dose 250-1000 nM
Mus musculus [6] = test: In vivo inhibition of CDK12/13 in Balb/c mouse xenografted with human SUM149PT cells assessed as reduction in BRCA1 gene expression at 15 to 30 mg/kg, po administered once daily via gavage and measured at 4 hrs post-last drug dosage by qPCR analysis; assay type: functional, organism-based; conditions: dose 15-30 mg/kg
[7] = AUC(0 to t) in male Sprague-Dawley rat at 20 mg/kg, po administered once daily via gavage for 28 days; assay type: ADME, organism-based; conditions: in vivo, 672 h, time 28 day
[8] = Toxicity against female Sprague-Dawley rat assessed as effect on sodium level in blood at 7.5 to 30 mg/kg, po administered once daily via gavage for 28 days and measured on day 29; assay type: organism-based; conditions: in vivo, 696 h, dose 7.5-30 mg/kg, time 29 day
HCT-116 = test: Antiproliferative activity against human HCT-116 cells assessed as reduction in cell viability incubated for 7 days by CellTiter-Glo reagent based luminescence analysis; assay type: functional; conditions: HCT-116, 168 h
[9] = Toxicity against female Sprague-Dawley rat assessed as decrease in thymus weight at 7.5 to 30 mg/kg, po administered once daily via gavage for 28 days and measured on day 29; assay type: organism-based; conditions: in vivo, 696 h, dose 7.5-30 mg/kg, time 29 day
Cytochrome P450 1A2 = Cytochrome P450 1A2 (Homo sapiens, UniProt P05177); test: Inhibition of CYP1A2 in human liver microsomes assessed as inhibition of phenacetin-O-deethylation incubated for 10 mins in presence of NADPH by LC-MS/MS analysis; assay type: ADME, Microsome
Chain of Cytochrome P450 1A2 (P05177 whole entry): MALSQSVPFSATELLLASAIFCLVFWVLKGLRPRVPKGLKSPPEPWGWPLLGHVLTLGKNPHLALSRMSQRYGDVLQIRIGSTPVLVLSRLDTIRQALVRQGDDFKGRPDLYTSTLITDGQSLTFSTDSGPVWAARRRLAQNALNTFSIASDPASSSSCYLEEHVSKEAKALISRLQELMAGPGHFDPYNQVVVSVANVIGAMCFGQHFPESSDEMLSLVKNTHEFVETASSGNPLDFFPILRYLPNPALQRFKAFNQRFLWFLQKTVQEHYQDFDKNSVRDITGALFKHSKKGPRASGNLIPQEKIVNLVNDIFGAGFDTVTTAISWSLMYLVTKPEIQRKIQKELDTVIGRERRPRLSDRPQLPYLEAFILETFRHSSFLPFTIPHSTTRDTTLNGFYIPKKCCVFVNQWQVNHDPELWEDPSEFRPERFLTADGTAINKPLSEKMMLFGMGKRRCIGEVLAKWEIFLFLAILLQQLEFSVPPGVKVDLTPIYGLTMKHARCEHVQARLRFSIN

[10] = biological target: CDK1/Cyclin A (Homo sapiens) (UniProt P06493+P20248); test: Inhibition of human recombinant N-terminal GST-tagged CDK1/N-terminal GST-tagged and C-terminal 8X His-tagged Cyclin A2 expressed in HEP Sf9 cells using ATP as substrate at 2 uM measured after 60 mins by ADP-Glo reagent based luminescence analysis
Chain of CDK1/Cyclin A (Homo sapiens) (P06493 whole entry, looked up): as the sequence (P06493 whole entry, looked up) above
Chain of CDK1/Cyclin A (Homo sapiens) (P20248 whole entry, looked up): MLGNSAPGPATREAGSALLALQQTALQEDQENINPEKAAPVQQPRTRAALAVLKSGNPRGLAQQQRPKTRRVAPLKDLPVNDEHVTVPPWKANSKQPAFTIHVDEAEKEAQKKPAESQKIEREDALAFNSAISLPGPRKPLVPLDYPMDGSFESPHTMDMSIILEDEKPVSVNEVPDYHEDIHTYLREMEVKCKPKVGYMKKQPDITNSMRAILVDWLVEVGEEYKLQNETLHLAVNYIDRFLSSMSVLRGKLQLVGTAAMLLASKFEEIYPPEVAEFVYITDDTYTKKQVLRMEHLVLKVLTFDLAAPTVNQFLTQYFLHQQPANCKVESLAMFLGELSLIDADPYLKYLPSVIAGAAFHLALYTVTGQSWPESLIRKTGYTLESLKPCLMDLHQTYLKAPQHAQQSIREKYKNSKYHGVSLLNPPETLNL

[11] = Cmax in female Sprague-Dawley rat at 7.5 mg/kg, po administered once daily via gavage for 28 days; assay type: ADME, organism-based; conditions: in vivo, time 28 day
[12] = Toxicity against female Sprague-Dawley rat assessed as decrease in thymus volume at 7.5 to 30 mg/kg, po administered once daily via gavage for 28 days and measured on day 29; assay type: organism-based; conditions: in vivo, 696 h, dose 7.5-30 mg/kg, time 29 day
[13] = Cmax in female Sprague-Dawley rat at 15 mg/kg, po administered once daily via gavage for 28 days; assay type: ADME, organism-based; conditions: in vivo, time 28 day
[14] = biological target: Mitogen-activated protein kinase 10 (Homo sapiens) (UniProt P53779); test: Inhibition of JNK3 (unknown origin) at 5 uM by DiscoverX KinomeScan ScanMAX analysis
Chain of Mitogen-activated protein kinase 10 (Homo sapiens) (P53779 whole entry): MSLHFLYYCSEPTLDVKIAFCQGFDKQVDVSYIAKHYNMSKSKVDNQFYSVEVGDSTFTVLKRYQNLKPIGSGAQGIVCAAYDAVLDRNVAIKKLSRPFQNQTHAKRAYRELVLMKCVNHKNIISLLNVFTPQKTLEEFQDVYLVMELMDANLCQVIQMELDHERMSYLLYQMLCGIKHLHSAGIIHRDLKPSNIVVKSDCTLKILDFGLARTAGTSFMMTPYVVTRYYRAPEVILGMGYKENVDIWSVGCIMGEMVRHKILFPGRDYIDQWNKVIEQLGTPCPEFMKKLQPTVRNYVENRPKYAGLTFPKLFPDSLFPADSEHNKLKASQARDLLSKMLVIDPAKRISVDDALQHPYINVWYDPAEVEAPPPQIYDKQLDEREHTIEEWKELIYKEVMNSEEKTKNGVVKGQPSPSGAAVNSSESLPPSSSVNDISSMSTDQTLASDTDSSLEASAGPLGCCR

KARPAS-299 = test: Antiproliferative activity against human KARPAS-299 cells assessed as reduction in cell viability incubated for 7 days by CellTiter-Glo reagent based luminescence analysis; assay type: functional; conditions: KARPAS-299, 168 h
Mus musculus [15] = test: In vivo inhibition of CDK12/13 in Balb/c mouse xenografted with human SUM149PT cells assessed as reduction in ATM gene expression at 15 to 30 mg/kg, po administered once daily via gavage and measured at 4 hrs post-last drug dosage by qPCR analysis; assay type: functional, organism-based; conditions: dose 15-30 mg/kg
[16] = AUC(0 to t) in female Sprague-Dawley rat at 30 mg/kg, po administered via gavage and measured on day 1; assay type: ADME, organism-based; conditions: in vivo, 24 h, time 1 day
[17] = GSH reactivity assessed as half life to adduct formation at 1 uM by LC-MS/MS analysis; assay type: physicochemical
[18] = Volume of distribution at steady state in CD-1 mouse at 1 mg/kg, iv measured for 24 hrs by LC-MS/MS analysis; assay type: ADME, organism-based; conditions: in vivo, read-out: Vdss
[19] = AUC(0 to t) in male Sprague-Dawley rat at 40 mg/kg, po administered via gavage and measured on day 1; assay type: ADME, organism-based; conditions: in vivo, 24 h, time 1 day
[20] = Half life in Sprague-Dawley rat at 1 mg/kg, iv measured for 24 hrs by LC-MS/MS analysis; assay type: ADME, organism-based; conditions: in vivo
HEP Sf9 = test: Inhibition of human recombinant N-terminal GST-tagged CDK4/C-terminal 6XHis-tagged Cyclin D3 S259A mutant expressed in HEP Sf9 cells using ATP as substrate at 2 uM measured after 60 mins by ADP-Glo reagent based luminescence assay
[21] = Half life in female Sprague-Dawley rat at 30 mg/kg, po administered once daily via gavage for 28 days; assay type: ADME, organism-based; conditions: in vivo, time 28 day
[22] = Kinetic solubility of the compound in phosphate buffer at pH 7.4 measured after 24 hrs by HPLC-UV analysis; assay type: physicochemical; conditions: read-out: Kinetic_solubility
[23] = Volume of distribution at steady state in Sprague-Dawley rat at 1 mg/kg, iv measured for 24 hrs by LC-MS/MS analysis; assay type: ADME, organism-based; conditions: in vivo, read-out: Vdss
Cytochrome P450 2C19 = Cytochrome P450 2C19 (Homo sapiens, UniProt P33261); test: Inhibition of CYP2C19 in human liver microsomes assessed as inhibition of S-mephenytoin-4-hydroxylation incubated for 10 mins in presence of NADPH by LC-MS/MS analysis; assay type: ADME, Microsome
Chain of Cytochrome P450 2C19 (P33261 whole entry): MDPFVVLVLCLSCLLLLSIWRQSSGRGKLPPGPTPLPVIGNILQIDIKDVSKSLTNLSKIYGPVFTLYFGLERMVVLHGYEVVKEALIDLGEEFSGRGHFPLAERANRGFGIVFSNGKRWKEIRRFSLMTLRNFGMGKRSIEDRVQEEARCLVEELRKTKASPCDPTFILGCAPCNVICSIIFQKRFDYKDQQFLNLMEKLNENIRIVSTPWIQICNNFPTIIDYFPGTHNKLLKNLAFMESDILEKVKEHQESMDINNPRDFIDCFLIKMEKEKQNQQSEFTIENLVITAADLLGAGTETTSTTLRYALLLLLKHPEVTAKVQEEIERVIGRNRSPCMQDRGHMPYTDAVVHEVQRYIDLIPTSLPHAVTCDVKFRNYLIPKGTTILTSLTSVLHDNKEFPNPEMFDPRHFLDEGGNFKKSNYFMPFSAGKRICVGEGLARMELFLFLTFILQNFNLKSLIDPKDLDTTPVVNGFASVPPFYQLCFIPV

[24] = biological target: Cyclin-dependent kinase 13/Cyclin-K (Homo sapiens) (UniProt Q14004+O75909); test: Inhibition of human recombinant N-terminal GST-tagged CDK13/N-terminal FLAG and C-terminal His-tagged Cyclin K expressed in HEP Sf9 cells using ATP as substrate at 2 uM measured after 60 mins by ADP-Glo reagent based luminescence assay
Chain of Cyclin-dependent kinase 13/Cyclin-K (Homo sapiens) (O75909 whole entry, looked up): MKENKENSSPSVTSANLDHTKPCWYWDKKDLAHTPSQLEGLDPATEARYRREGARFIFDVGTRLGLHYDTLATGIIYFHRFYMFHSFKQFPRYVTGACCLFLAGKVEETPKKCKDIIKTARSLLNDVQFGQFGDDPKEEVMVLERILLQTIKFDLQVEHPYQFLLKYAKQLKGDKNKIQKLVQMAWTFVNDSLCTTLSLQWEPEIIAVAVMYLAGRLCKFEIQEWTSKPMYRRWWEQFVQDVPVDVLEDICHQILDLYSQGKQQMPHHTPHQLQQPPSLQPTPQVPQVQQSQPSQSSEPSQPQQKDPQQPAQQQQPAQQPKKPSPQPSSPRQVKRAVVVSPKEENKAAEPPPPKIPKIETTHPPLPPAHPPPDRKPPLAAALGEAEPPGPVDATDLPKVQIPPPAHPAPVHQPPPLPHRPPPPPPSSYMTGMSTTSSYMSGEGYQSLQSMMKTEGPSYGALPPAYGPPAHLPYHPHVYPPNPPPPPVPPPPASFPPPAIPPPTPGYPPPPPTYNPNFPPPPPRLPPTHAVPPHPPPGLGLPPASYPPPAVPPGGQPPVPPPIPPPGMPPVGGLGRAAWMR
Chain of Cyclin-dependent kinase 13/Cyclin-K (Homo sapiens) (Q14004 whole entry, looked up): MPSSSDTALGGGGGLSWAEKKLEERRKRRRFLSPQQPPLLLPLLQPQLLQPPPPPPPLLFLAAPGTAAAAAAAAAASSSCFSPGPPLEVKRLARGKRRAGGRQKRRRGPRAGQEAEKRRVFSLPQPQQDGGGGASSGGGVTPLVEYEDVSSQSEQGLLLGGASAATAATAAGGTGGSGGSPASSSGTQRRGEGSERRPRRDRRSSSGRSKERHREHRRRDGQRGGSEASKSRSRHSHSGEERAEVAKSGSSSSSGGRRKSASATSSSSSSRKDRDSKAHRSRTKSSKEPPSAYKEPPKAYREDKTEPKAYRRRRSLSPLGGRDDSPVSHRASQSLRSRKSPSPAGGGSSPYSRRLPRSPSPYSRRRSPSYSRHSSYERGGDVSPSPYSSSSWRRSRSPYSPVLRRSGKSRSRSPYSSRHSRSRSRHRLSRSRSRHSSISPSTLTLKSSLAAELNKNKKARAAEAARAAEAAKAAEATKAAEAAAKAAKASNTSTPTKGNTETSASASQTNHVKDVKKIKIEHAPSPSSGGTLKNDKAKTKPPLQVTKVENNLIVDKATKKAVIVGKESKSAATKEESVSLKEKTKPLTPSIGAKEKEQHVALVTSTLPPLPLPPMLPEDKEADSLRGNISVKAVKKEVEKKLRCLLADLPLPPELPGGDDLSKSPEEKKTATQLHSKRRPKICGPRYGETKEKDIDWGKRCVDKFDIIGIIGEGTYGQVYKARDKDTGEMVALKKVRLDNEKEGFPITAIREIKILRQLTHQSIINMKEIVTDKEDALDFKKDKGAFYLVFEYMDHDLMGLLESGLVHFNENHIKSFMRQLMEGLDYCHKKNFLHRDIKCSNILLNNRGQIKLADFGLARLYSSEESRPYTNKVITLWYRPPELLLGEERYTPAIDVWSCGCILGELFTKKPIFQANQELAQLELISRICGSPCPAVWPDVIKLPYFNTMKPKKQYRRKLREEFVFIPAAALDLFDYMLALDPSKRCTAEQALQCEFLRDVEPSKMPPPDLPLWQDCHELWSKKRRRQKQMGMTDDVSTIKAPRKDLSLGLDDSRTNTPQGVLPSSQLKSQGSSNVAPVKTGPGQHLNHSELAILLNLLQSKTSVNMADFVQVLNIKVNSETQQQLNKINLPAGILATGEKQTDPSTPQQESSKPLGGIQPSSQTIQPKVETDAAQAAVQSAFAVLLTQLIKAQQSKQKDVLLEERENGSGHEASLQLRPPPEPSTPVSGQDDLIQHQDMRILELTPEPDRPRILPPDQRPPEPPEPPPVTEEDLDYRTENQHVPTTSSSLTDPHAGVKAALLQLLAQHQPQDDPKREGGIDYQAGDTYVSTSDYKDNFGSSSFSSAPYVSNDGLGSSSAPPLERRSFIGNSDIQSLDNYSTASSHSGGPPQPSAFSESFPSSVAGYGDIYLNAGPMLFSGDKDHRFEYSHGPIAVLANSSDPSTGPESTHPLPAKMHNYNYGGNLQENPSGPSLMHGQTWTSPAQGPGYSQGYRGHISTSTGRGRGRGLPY

Structure (SMILES): C=CC(=O)N1CCc2c(ncnc2N2CC[C@@H](Nc3ncc(Cl)c(OC)n3)C2)C1
- inhibition [1]: 64%
- inhibition in vivo at 30 mg/kg (MV4-11): 95%
- inhibition [2]: 46%
- inhibition [3]: 24%
- Activity [4]: Non-toxic
- inhibition [5]: Dose-dependent-effect
- inhibition (Mus musculus [6]): Active
- AUCt [7]: 2870 ng·h/mL
- Activity [8]: Non-toxic
- IC50 (HCT-116): 128 nM
- Activity [9]: Toxic
- IC50 (Cytochrome P450 1A2): > 50 µM
- inhibition [10]: 10%
- Cmax [11]: 800 ng/mL
- Activity [12]: Toxic
- Cmax [13]: 1800 ng/mL
- inhibition [14]: Active
- IC50 (KARPAS-299): 131 nM
- inhibition (Mus musculus [15]): Active
- AUCt [16]: 9090 ng·h/mL
- t1/2 [17]: 81.2 min
- Vd [18]: 0.87 L/kg
- AUCt [19]: 7120 ng·h/mL
- half-life [20]: 13.8 min
- inhibition (HEP Sf9): 68%
- half-life [21]: 270 min
- solubility kinetic at 24 h [22]: 59.4 µg/mL (≈ 143 µM)
- Vd [23]: 0.72 L/kg
- IC50 (Cytochrome P450 2C19): > 50 µM
- inhibition [24]: 83%
